Results published in the NIST ThermoML archive (doi:10.1021/je300972a).

Test: refractive index (Na D-line) (dimensionless); xn = mol fraction of the nth substance listed
Conditions: 101 kPa, Liquid, Standard Abbe refractometry

CCCC[n+]1ccc(C)cc1.O=S(=O)([N-]S(=O)(=O)C(F)(F)F)C(F)(F)F + CCCC[n+]1ccccc1.F[B-](F)(F)F
refractive index
Conditions | 293.15 K | 303.15 K | 313.15 K | 323.15 K | 333.15 K | 343.15 K | 353.15 K
x2 = 0 | 1.448 | 1.4449 | 1.4419 | 1.4388 | 1.4358 | 1.4328 | 1.4298
x2 = 0.0575 | 1.4479 | 1.4448 | 1.4418 | 1.4388 | 1.4357 | 1.4328 | 1.4298
x2 = 0.1136 | 1.4477 | 1.4446 | 1.4416 | 1.4386 | 1.4356 | 1.4327 | 1.4297
x2 = 0.2311 | 1.4474 | 1.4444 | 1.4414 | 1.4385 | 1.4356 | 1.4327 | 1.4298
x2 = 0.3515 | 1.4472 | 1.4443 | 1.4414 | 1.4385 | 1.4356 | 1.4327 | 1.4299
x2 = 0.4566 | 1.4471 | 1.4441 | 1.4413 | 1.4384 | 1.4356 | 1.4328 | 1.43
x2 = 0.5692 | 1.4469 | 1.4441 | 1.4413 | 1.4385 | 1.4357 | 1.433 | 1.4302
x2 = 0.673 | 1.4468 | 1.444 | 1.4413 | 1.4385 | 1.4358 | 1.4331 | 1.4304
x2 = 0.7836 | 1.4468 | 1.4441 | 1.4413 | 1.4386 | 1.4359 | 1.4333 | 1.4306
x2 = 0.889 | 1.4469 | 1.4442 | 1.4416 | 1.4389 | 1.4362 | 1.4336 | 1.431
x2 = 0.9535 | 1.447 | 1.4443 | 1.4417 | 1.439 | 1.4364 | 1.4338 | 1.4313
